Tested on: SkinEthic RHE/S/17 reconstituted human epidermis
Experiment: TEM ultrastructure of artificial constructs of human skin (SkinEthic) after treatment with ASA compositions
Type: cell-based
Description: Experiments Comparing Different ASA-Containing Compositions on the Ultrastructure of Artificial Constructs of Human Skin (SkinEthic)
Artificial Constructs of Human Skin
SkinEthic™ RHE/S/17 reconstituted human epidermis samples were used. This is an in vitro reconstituted human epidermis from normal human keratinocytes grown on a polycarbonate filter at the air-liquid interface.
The tissue samples were removed from the protective agarose and incubated in a multiwell with 6 wells with 1 ml of maintenance medium per well.
After about 14 hours of incubation with the described-above compositions, the epidermis inserts were cut and fixed in 500 microliters of fixative (glutaraldehyde 2.5%, paraformaldehyde 2% in cacodylate buffer 0.1 M at pH 7.4) for 2 hours at room temperature.
After trimming small rectangles of fabric, the samples were included in an epoxy resin. Ultra-thin slices were obtained and placed on copper screens, then stained with uranyl acetate and lead citrate.

CC(O)CO (stereo not drawn) [Composition 3, propylene glycol]
overall appearance of the basal, spinous and granular layers (TEM): preserved and similar to the control
N. of corneocyte layers left after treatment (about 14 hours of incubation, TEM, not-treated control >25): 19-20
efficacy as judged from corneocyte layers left (verbal rating of Table 1 data): poor efficacy
